Test results: ChEMBL document CHEMBL1201862, “PubChem BioAssay data set” (2004)
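Grown in 96-well plates, cells were treated for 48 hours with each compound at five concentrations. Insufficient inhibition: endpoint recorded as highest concentration tested. GI50 = concentration required for 50% inhibition of growth.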 Active and inactive are the calls of the source. Cut-off read from the data, not from the text of the source: active = GI50 up to about 1.1 µM and inactive = higher.

Columns and labels:
Test in all cases: NCI-60 cell line screen, 48 h
PC-3 = tested on: PC-3
SW-620 = tested on: SW-620
BT-549 = tested on: BT-549
SR = tested on: SR
MDA-MB-435 = tested on: MDA-MB-435
NCI/ADR-RES = tested on: NCI/ADR-RES
CCRF-CEM = tested on: CCRF-CEM
M14 = tested on: M14
SF-539 = tested on: SF-539
T47D = tested on: T47D
A549 = tested on: A549
LOX IMVI = tested on: LOX IMVI
NCI-H522 = tested on: NCI-H522
OVCAR-4 = tested on: OVCAR-4
SK-MEL-28 = tested on: SK-MEL-28
HOP-62 = tested on: HOP-62
HT-29 = tested on: HT-29
SK-MEL-5 = tested on: SK-MEL-5
UACC-62 = tested on: UACC-62
A498 = tested on: A498

SMILES	GI50 (PC-3)	GI50 (SW-620)	GI50 (BT-549)	GI50 (SR)	GI50 (MDA-MB-435)	GI50 (NCI/ADR-RES)	GI50 (CCRF-CEM)	GI50 (M14)	GI50 (SF-539)	GI50 (T47D)	GI50 (A549)	GI50 (LOX IMVI)	GI50 (NCI-H522)	GI50 (OVCAR-4)	GI50 (SK-MEL-28)	GI50 (HOP-62)	GI50 (HT-29)	GI50 (SK-MEL-5)	GI50 (UACC-62)	GI50 (A498)
N=C(N)NNC(=O)C(=O)O	> 100 µM (inactive)	> 100 µM (inactive)	> 100 µM (inactive)	> 100 µM (inactive)	> 100 µM (inactive)	> 100 µM (inactive)	> 100 µM (inactive)	> 100 µM (inactive)	> 100 µM (inactive)	> 100 µM (inactive)	> 100 µM (inactive)	> 100 µM (inactive)	> 100 µM (inactive)	> 100 µM (inactive)	> 100 µM (inactive)	> 100 µM (inactive)	> 100 µM (inactive)	> 100 µM (inactive)	> 100 µM (inactive)	> 100 µM (inactive)
COc1cc(C(c2cc3c(cc2O)OCO3)N2CCCCC2)cc(OC)c1OC (stereo not given)	15.8 µM (inactive)	4.57 µM (inactive)	12 µM (inactive)	2.33 µM (inactive)	5.02 µM (inactive)	17.5 µM (inactive)	1.85 µM (inactive)	6.28 µM (inactive)	17.9 µM (inactive)	22.4 µM (inactive)	20.9 µM (inactive)	14.8 µM (inactive)	11.8 µM (inactive)	11.9 µM (inactive)	16.7 µM (inactive)	30 µM (inactive)	17 µM (inactive)	19.1 µM (inactive)	16.4 µM (inactive)	19.5 µM (inactive)
O=C(O)/C=C/C(=O)Nc1cccc2c1-c1ccccc1C2=O	5.7 µM (inactive)	5.53 µM (inactive)	16.9 µM (inactive)	9.2 µM (inactive)	2.85 µM (inactive)	10.3 µM (inactive)	4.32 µM (inactive)	9.4 µM (inactive)	3.46 µM (inactive)	> 51.5 µM (inactive)	20.9 µM (inactive)	8.91 µM (inactive)	3.25 µM (inactive)	22.9 µM (inactive)	> 29.6 µM (inactive)	8.75 µM (inactive)	22.3 µM (inactive)	4.39 µM (inactive)	6.58 µM (inactive)	53 µM (inactive)
COc1cc(OC)c2c(O)c3c(cc2c1)CC(C)(C)CC3=O	> 100 µM (inactive)	59 µM (inactive)	> 100 µM (inactive)	> 26.7 µM (inactive)	19.4 µM (inactive)	> 100 µM (inactive)	> 63.1 µM (inactive)	> 100 µM (inactive)	> 100 µM (inactive)	> 100 µM (inactive)	> 100 µM (inactive)	> 100 µM (inactive)	> 64.3 µM (inactive)	32.1 µM (inactive)	60.7 µM (inactive)	97.3 µM (inactive)	5.96 µM (inactive)	> 100 µM (inactive)	90.6 µM (inactive)	> 100 µM (inactive)
N/N=C(\c1nc2ccc([N+](=O)[O-])cc2nc1O)C(O)c1ccc(Cl)c(Cl)c1 (stereo not given)	> 100 µM (inactive)	56.9 µM (inactive)	> 100 µM (inactive)	61.5 µM (inactive)	71.6 µM (inactive)	> 100 µM (inactive)	15.8 µM (inactive)	> 100 µM (inactive)	> 100 µM (inactive)	67.3 µM (inactive)	> 100 µM (inactive)	33.4 µM (inactive)	13.9 µM (inactive)	> 100 µM (inactive)	> 100 µM (inactive)	> 100 µM (inactive)	> 100 µM (inactive)	61.8 µM (inactive)	> 100 µM (inactive)	> 100 µM (inactive)
CCOc1ccc(-n2c(=O)c3nn4c(=O)n(-c5ccc(OCC)cc5)c(=O)c4nn3c2=O)cc1	> 100 µM (inactive)	> 100 µM (inactive)	64.6 µM (inactive)	> 100 µM (inactive)	> 100 µM (inactive)	> 100 µM (inactive)	> 10 µM (inactive)	> 100 µM (inactive)	> 100 µM (inactive)	> 100 µM (inactive)	> 100 µM (inactive)	> 100 µM (inactive)	> 100 µM (inactive)	> 100 µM (inactive)	> 100 µM (inactive)	77.8 µM (inactive)	> 100 µM (inactive)	> 100 µM (inactive)	> 100 µM (inactive)	18.6 µM (inactive)
[N-]=[N+]=Nc1ccc2c(c1)Sc1ccccc1N2CCCCCl	41.3 µM (inactive)	88.3 µM (inactive)	41.6 µM (inactive)	30.9 µM (inactive)	51.4 µM (inactive)	> 100 µM (inactive)	36.7 µM (inactive)	> 100 µM (inactive)	> 100 µM (inactive)	44.7 µM (inactive)	35.2 µM (inactive)	36.8 µM (inactive)	40.7 µM (inactive)	80.4 µM (inactive)	> 100 µM (inactive)	> 100 µM (inactive)	20.1 µM (inactive)	14.9 µM (inactive)	99.8 µM (inactive)	> 100 µM (inactive)
N=c1oc2c(Br)cc(Br)cc2cc1C(=O)Nc1ccccn1	38.5 µM (inactive)	> 100 µM (inactive)	> 100 µM (inactive)	91 µM (inactive)	62.1 µM (inactive)	61.4 µM (inactive)	41.2 µM (inactive)	56 µM (inactive)	31.8 µM (inactive)	38.8 µM (inactive)	65.3 µM (inactive)	> 100 µM (inactive)	47.2 µM (inactive)	68.9 µM (inactive)	> 100 µM (inactive)	53 µM (inactive)	44.1 µM (inactive)	63.1 µM (inactive)	74.8 µM (inactive)	> 100 µM (inactive)
N#CS/C(C(Cl)=C(Cl)Cl)=C(/Cl)[N+](=O)[O-]	5.33 µM (inactive)	1.78 µM (inactive)	2.24 µM (inactive)	0.778 µM (active)	1.66 µM (inactive)	3.88 µM (inactive)	0.284 µM (active)	1.31 µM (inactive)	6.44 µM (inactive)	1.99 µM (inactive)	21 µM (inactive)	0.904 µM (active)	1.04 µM (active)	1.95 µM (inactive)	1.76 µM (inactive)	15.4 µM (inactive)	1.9 µM (inactive)	2.53 µM (inactive)	4.26 µM (inactive)	17.1 µM (inactive)
CC(O)C1(O)C(O)CC(OC2c3cc4c(c(O)c3[C@@H]3C[C@@]2(C)OC32C=c3cc[nH]c3=N2)C(=O)c2cccc(O)c2C4=O)OC1C (stereo not given in full)	1.23 µM (inactive)	0.809 µM (active)	5.56 µM (inactive)	0.287 µM (active)	1.63 µM (inactive)	3.44 µM (inactive)	0.34 µM (active)	1.34 µM (inactive)	1.19 µM (inactive)	3.1 µM (inactive)	0.433 µM (active)	0.555 µM (active)	0.307 µM (active)	2.38 µM (inactive)	1.7 µM (inactive)	1.06 µM (active)	0.644 µM (active)	3.06 µM (inactive)	1.31 µM (inactive)	1.29 µM (inactive)
Nc1nc(Sc2ccc([N+](=O)[O-])cn2)c2nc[nH]c2n1	14 µM (inactive)	18.2 µM (inactive)	8.45 µM (inactive)	3.46 µM (inactive)	4.79 µM (inactive)	3.78 µM (inactive)	2.77 µM (inactive)	3.16 µM (inactive)	6.24 µM (inactive)	4.36 µM (inactive)	15.1 µM (inactive)	2.52 µM (inactive)	12.3 µM (inactive)	9.18 µM (inactive)	33.8 µM (inactive)	4.6 µM (inactive)	4.86 µM (inactive)	14.4 µM (inactive)	2.94 µM (inactive)	11.8 µM (inactive)
ONCCCn1cnc2c(NC3CC3)ncnc21	> 100 µM (inactive)	> 100 µM (inactive)	> 100 µM (inactive)	> 100 µM (inactive)	> 100 µM (inactive)	> 100 µM (inactive)	> 100 µM (inactive)	> 100 µM (inactive)	> 100 µM (inactive)	> 100 µM (inactive)	> 100 µM (inactive)	> 100 µM (inactive)	> 100 µM (inactive)	> 100 µM (inactive)	> 100 µM (inactive)	> 100 µM (inactive)	> 100 µM (inactive)	> 100 µM (inactive)	> 100 µM (inactive)	> 100 µM (inactive)
O=c1oc2nc(-c3ccccc3)cc(C(F)(F)F)c2n1Cc1ccccc1	3.46 µM (inactive)	6.5 µM (inactive)	19.7 µM (inactive)	0.454 µM (active)	0.659 µM (active)	3.42 µM (inactive)	7.21 µM (inactive)	4.33 µM (inactive)	7.5 µM (inactive)	3.24 µM (inactive)	8.69 µM (inactive)	9.71 µM (inactive)	4.33 µM (inactive)	11.6 µM (inactive)	50.1 µM (inactive)	12.2 µM (inactive)	3.8 µM (inactive)	5.42 µM (inactive)	4.24 µM (inactive)	2.07 µM (inactive)
O=C(/C=C/c1ccc(O)c(O)c1)Oc1ccccc1	17.1 µM (inactive)	12.6 µM (inactive)	14.9 µM (inactive)	0.434 µM (active)	14.5 µM (inactive)	11.2 µM (inactive)	0.292 µM (active)	15.5 µM (inactive)	10.6 µM (inactive)	9.71 µM (inactive)	15.3 µM (inactive)	4.9 µM (inactive)	0.304 µM (active)	15.2 µM (inactive)	22.5 µM (inactive)	15.8 µM (inactive)	11.3 µM (inactive)	9.95 µM (inactive)	13.2 µM (inactive)	55 µM (inactive)
